Tests used:
LSD1/CoREST complex [1] = target: T1, LSD1/CoREST complex (Homo sapiens, UniProt O60341); test: Binding affinity to human LSD1/CoREST assessed as dissociation constant by competitive fluorescence polarization assay; assay type: protein-complex assay
[2] = target: T2, Histone-lysine N-methyltransferase EHMT2 (Homo sapiens, UniProt Q96KQ7); test: Inhibition of G9a (unknown origin) assessed as reduction in substrate methylation using histone H3 and SAM as substrate measured after 15 to 60 mins by microfluidic capillary electrophoresis analysis
T2 sequence (Q96KQ7 whole entry): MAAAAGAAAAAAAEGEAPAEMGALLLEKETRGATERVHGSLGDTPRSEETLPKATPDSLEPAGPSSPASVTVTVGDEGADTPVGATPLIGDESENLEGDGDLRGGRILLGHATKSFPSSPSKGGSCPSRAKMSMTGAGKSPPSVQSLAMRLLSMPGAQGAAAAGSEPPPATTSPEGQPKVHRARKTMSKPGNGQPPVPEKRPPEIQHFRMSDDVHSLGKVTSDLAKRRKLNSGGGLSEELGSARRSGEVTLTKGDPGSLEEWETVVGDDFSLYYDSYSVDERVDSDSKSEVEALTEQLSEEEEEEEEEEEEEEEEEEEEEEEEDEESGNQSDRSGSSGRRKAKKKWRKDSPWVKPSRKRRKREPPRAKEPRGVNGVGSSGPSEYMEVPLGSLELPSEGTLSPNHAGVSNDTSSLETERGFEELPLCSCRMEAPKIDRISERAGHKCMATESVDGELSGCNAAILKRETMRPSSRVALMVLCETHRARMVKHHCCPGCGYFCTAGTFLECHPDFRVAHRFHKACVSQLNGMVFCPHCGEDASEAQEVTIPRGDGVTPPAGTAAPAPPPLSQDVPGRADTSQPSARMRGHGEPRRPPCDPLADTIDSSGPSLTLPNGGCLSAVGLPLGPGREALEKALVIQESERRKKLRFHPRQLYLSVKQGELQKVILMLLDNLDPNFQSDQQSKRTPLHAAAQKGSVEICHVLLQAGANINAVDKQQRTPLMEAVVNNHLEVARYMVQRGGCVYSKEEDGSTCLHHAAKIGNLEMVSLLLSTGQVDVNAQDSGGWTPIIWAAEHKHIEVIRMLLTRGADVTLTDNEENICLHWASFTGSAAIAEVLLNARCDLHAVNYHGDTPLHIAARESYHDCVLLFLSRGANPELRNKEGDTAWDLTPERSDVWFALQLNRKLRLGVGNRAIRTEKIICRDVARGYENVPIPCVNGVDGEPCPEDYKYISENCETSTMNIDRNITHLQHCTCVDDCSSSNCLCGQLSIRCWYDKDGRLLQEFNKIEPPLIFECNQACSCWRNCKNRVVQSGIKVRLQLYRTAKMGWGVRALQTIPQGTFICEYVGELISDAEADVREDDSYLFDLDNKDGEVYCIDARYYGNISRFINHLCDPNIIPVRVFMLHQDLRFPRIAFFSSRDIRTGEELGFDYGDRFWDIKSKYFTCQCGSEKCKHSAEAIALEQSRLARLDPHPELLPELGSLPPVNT

THP-1 [3] = test: Antiproliferative activity against human THP-1 cells assessed as inhibition of cell growth incubated for 72 hrs by CellTiter-Glo luminescent cell viability assay; assay type: functional, cell-based; conditions: THP-1, 72 h
LSD1/CoREST complex [4] = target: T1, LSD1/CoREST complex; test: Inhibition of human LSD1/CoREST using histone H3 peptide as substrate by fluorescence polarization assay; assay type: protein-complex assay
THP-1 [5] = test: Antiproliferative activity against human THP-1 cells assessed as inhibition of cell growth incubated for 144 hrs by CellTiter-Glo luminescent cell viability assay; assay type: functional, cell-based; conditions: THP-1, 144 h
MDA-MB-231 = test: Antiproliferative activity against human MDA-MB-231 cells assessed as inhibition of cell growth measured after 72 hrs by MTT assay; assay type: functional, cell-based; conditions: MDA-MB-231, 72 h
THP-1 [6] = test: Antiproliferative activity against human THP-1 cells assessed as inhibition of cell growth incubated for 24 hrs by CellTiter-Glo luminescent cell viability assay; assay type: functional, cell-based; conditions: THP-1, 24 h
[7] = target: Histone-lysine N-methyltransferase EZH2 (Homo sapiens) (UniProt Q15910); test: Inhibition of EZH2 (unknown origin) using [3H]SAM and chicken core histone as substrates at 100 uM incubated for 1 hr relative to control
[8] = target: Histone-lysine N-methyltransferase, H3 lysine-79 specific (Homo sapiens) (UniProt Q8TEK3); test: Inhibition of […] (unknown origin) using [3H]SAM and HeLa oligo nucleosomes as substrates at 100 uM incubated for 1 hr relative to control
Sequence of Histone-lysine N-methyltransferase, H3 lysine-79 specific (Homo sapiens) (Q8TEK3 whole entry, looked up): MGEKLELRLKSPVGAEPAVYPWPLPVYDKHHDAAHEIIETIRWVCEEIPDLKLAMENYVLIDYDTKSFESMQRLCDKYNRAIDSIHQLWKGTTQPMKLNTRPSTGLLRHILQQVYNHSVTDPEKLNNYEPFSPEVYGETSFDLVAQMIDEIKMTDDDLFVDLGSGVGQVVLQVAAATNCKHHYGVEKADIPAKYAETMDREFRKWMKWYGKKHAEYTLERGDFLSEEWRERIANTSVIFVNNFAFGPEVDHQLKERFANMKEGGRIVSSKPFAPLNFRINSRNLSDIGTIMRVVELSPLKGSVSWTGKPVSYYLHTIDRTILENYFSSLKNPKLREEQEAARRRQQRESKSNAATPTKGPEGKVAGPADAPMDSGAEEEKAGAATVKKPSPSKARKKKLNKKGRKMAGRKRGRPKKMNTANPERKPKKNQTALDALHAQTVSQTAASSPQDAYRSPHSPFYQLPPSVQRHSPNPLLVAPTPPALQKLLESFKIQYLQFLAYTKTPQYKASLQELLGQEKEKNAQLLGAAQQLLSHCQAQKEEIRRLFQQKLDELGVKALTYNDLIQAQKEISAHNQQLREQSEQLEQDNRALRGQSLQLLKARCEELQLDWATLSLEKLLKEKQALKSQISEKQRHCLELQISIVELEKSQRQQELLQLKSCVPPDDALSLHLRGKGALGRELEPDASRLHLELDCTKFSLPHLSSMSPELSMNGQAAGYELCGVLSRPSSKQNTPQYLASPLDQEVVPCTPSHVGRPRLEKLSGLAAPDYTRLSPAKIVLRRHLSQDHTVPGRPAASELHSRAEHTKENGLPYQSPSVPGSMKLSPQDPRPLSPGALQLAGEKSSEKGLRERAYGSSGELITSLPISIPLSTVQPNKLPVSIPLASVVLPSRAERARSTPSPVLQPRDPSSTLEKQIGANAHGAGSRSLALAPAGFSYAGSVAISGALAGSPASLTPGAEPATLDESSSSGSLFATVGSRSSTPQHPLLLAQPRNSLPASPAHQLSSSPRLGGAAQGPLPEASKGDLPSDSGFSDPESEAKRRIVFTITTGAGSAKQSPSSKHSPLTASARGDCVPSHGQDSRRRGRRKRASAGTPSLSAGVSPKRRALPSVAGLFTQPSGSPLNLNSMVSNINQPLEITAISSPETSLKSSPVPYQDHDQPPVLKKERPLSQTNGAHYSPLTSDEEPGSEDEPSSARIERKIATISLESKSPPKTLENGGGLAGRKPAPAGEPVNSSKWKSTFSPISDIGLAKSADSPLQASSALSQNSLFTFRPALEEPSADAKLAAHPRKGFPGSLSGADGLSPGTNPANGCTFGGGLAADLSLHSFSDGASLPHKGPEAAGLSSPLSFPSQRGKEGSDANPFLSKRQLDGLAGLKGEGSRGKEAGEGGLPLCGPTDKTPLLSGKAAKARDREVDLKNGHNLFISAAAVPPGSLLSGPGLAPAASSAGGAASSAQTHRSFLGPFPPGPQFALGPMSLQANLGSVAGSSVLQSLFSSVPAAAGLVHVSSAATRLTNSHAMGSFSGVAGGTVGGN

Sequence of Histone-lysine N-methyltransferase EZH2 (Homo sapiens) (Q15910 whole entry, looked up): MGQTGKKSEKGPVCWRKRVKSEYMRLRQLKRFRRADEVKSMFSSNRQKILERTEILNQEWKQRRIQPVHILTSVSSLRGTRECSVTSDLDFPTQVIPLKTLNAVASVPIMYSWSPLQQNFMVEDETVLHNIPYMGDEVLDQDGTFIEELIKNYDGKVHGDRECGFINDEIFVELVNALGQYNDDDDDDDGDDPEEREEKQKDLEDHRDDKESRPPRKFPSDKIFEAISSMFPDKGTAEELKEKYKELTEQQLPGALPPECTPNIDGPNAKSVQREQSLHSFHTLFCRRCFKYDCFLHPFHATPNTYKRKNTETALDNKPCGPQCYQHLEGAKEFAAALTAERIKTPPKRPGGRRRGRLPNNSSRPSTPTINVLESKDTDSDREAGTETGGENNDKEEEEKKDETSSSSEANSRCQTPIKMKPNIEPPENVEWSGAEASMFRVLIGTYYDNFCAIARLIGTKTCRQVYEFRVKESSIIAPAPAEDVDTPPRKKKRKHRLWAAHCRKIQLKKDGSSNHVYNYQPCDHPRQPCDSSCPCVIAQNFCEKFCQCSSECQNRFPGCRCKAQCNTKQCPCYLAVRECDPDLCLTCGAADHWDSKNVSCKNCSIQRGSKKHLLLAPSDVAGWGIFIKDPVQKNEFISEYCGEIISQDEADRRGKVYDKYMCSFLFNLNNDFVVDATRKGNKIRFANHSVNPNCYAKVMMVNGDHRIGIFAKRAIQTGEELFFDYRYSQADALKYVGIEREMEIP

Compound | Kd (LSD1/CoREST complex [1]) [nM] | Ki [2] [µM] | further results
COc1cc2nc(NCCCN(C)C)nc(NCC3CCN(Cc4ccccc4)CC3)c2cc1OC | 115 | 22.8 | –
COc1cc2nc(NCCCN(C)C)nc(N(C)C3CCN(Cc4ccccc4)CC3)c2cc1OC | 356 | > 100 | IC50 (THP-1 [3]): 430 nM; Ki (LSD1/CoREST complex [4]): 569 nM; IC50 (THP-1 [5]): 300 nM; IC50 (MDA-MB-231): 2380 nM; IC50 (THP-1 [6]): 670 nM
COc1cc2nc(NCCCN(C)C)nc(OC3CCN(Cc4ccccc4)CC3)c2cc1OC | 2850 | > 100 | –
COc1cc2nc(NC3CCN(C)CC3)nc(NC3CCN(Cc4ccccc4)CC3)c2cc1OC | 82 | 6.33 | –
Nc1ncnc2c1ncn2[C@@H]1O[C@H](CSCC[C@H](N)C(=O)O)[C@@H](O)[C@H]1O | – | – | inhibition [7]: 84.2%; inhibition [8]: 100%
COc1cc2nc(NCCCN3CCN(C)CC3)nc(NC3CCN(Cc4ccccc4)CC3)c2cc1OC | 191 | 13.3 | –
COc1cc2nc(NCCCCN(C)C)nc(NC3CCN(Cc4ccccc4)CC3)c2cc1OC | 112 | 4.24 | –
COc1cc2c(NCCNc3cccc4ccccc34)nc(NCCCN(C)C)nc2cc1OCc1ccccc1 | 127 | 20.2 | –
COc1cc2nc(NCCCN(C)C)nc(NCCCNc3ccccc3)c2cc1OC | 228 | 48.3 | –
COc1cc2nc(NCCCN3CCOCC3)nc(NC3CCN(Cc4ccccc4)CC3)c2cc1OC | 369 | 22.6 | –
COc1cc2nc(NCCCN3CCCCC3)nc(NC3CCN(Cc4ccccc4)CC3)c2cc1OC | 68 | 3.26 | Ki (LSD1/CoREST complex [4]): 170 nM
COc1cc2nc(NCCCCCN(C)C)nc(NC3CCN(Cc4ccccc4)CC3)c2cc1OC | 127 | 2.79 | –
COc1cc2nc(NCCCN(C)C)nc(NC3CCN(CCc4ccccc4)CC3)c2cc1OC | 147 | 3.13 | –
COc1cc2nc(NCCCN(C)Cc3ccccc3)nc(NC3CCN(Cc4ccccc4)CC3)c2cc1OC | 162 | 9.01 | –

Source: ChEMBL document CHEMBL5120862, “Novel non-covalent LSD1 inhibitors endowed with anticancer effects in leukemia and solid tumor cellular models” (Eur J Med Chem, 2022)
